Test results reported in patent US20150105252A1, “SUBSTITUTED PYRAZOLES AS HERBICIDES” (E I DU PONT DE NEMOURS AND COMPANY, priority 2013, published 2015).

Legend:
[1] = system: barnyardgrass; assay: Test A preemergence; type: in vivo, Echinochloa crus-galli; conditions: Preemergence, 1000 g ai/ha; 0 to 100 scale, 0 no effect, 100 complete control
In short: (§1)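 Growth medium: loam soil blended with sand. Preemergence treatment used a directed soil spray right after planting; postemergence treatment targeted seedlings at one to two leaves (2–10 cm height). Response was judged by eye relative to untreated plants about 10 days later on a 0–100 control scale.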

[2] = system: velvetleaf; assay: Test A postemergence; type: in vivo, Abutilon theophrasti; conditions: Postemergence, 1000 g ai/ha; visual rating after approx. 10 days, 0 to 100 scale (0 no effect, 100 complete control)
In short: as §1

[3] = system: corn; assay: Test A preemergence; type: in vivo, Zea mays; conditions: Preemergence, 1000 g ai/ha; 0 to 100 scale, 0 no effect, 100 complete control
In short: as §1

[4] = system: morningglory; assay: Test A postemergence; type: in vivo, Ipomoea spp.; conditions: Postemergence, 1000 g ai/ha; visual rating after approx. 10 days, 0 to 100 scale (0 no effect, 100 complete control)
In short: as §1

[5] = system: pigweed; assay: Test A preemergence; type: in vivo, Amaranthus retroflexus; conditions: Preemergence, 1000 g ai/ha; 0 to 100 scale, 0 no effect, 100 complete control
In short: as §1

[6] = system: velvetleaf; assay: Test A preemergence; type: in vivo, Abutilon theophrasti; conditions: Preemergence, 1000 g ai/ha; 0 to 100 scale, 0 no effect, 100 complete control
In short: as §1

[7] = system: wheat; assay: Test A postemergence; type: in vivo, Triticum aestivum; conditions: Postemergence, 1000 g ai/ha; visual rating after approx. 10 days, 0 to 100 scale (0 no effect, 100 complete control)
In short: as §1

[8] = system: wheat; assay: Test A preemergence; type: in vivo, Triticum aestivum
In short: as §1

[9] = system: corn; assay: Test A postemergence; type: in vivo, Zea mays; conditions: Postemergence, 1000 g ai/ha; visual rating after approx. 10 days, 0 to 100 scale (0 no effect, 100 complete control)
In short: as §1

[10] = system: barnyardgrass; assay: Test A postemergence; type: in vivo, Echinochloa crus-galli; conditions: Postemergence, 1000 g ai/ha; visual rating after approx. 10 days, 0 to 100 scale (0 no effect, 100 complete control)
In short: as §1

[11] = system: pigweed; assay: Test A postemergence; type: in vivo, Amaranthus retroflexus; conditions: Postemergence, 1000 g ai/ha; visual rating after approx. 10 days, 0 to 100 scale (0 no effect, 100 complete control)
In short: as §1

[12] = system: foxtail, giant; assay: Test A preemergence; type: in vivo, Setaria faberii; conditions: Preemergence, 1000 g ai/ha; 0 to 100 scale, 0 no effect, 100 complete control
In short: as §1

[13] = system: crabgrass, large; assay: Test A postemergence; type: in vivo, Digitaria sanguinalis; conditions: Postemergence, 1000 g ai/ha; visual rating after approx. 10 days, 0 to 100 scale (0 no effect, 100 complete control)
In short: as §1

[14] = system: morningglory; assay: Test A preemergence; type: in vivo, Ipomoea spp.; conditions: Preemergence, 1000 g ai/ha; 0 to 100 scale, 0 no effect, 100 complete control
In short: as §1

[15] = system: foxtail, giant; assay: Test A postemergence; type: in vivo, Setaria faberii; conditions: Postemergence, 1000 g ai/ha; visual rating after approx. 10 days, 0 to 100 scale (0 no effect, 100 complete control)
In short: as §1

[16] = system: crabgrass, large; assay: Test A preemergence; type: in vivo, Digitaria sanguinalis; conditions: Preemergence, 1000 g ai/ha; 0 to 100 scale, 0 no effect, 100 complete control
In short: as §1

[17] = Preemergence, 1000 g ai/ha, 0 to 100 scale, 0 no effect, 100 complete control
[18] = preemergence, 500 g ai/ha, visual injury after approx. 10 days, 0 to 100 scale (0 no effect, 100 complete control)

SMILES	Barnyardgrass plant response rating [1]	Velvetleaf plant response rating [2]	Corn plant response rating [3]	Morningglory plant response rating [4]	Pigweed plant response rating [5]	Velvetleaf plant response rating [6]	Wheat plant response rating [7]	Wheat plant response rating [8, 17]	Corn plant response rating [9]	Barnyardgrass plant response rating [10]	Pigweed plant response rating [11]	Foxtail, Giant plant response rating [12]	Crabgrass, Large plant response rating [13]	Morningglory plant response rating [14]	Foxtail, Giant plant response rating [15]	Crabgrass, Large plant response rating [16]	Wheat plant response rating [8, 18]
CCc1cc(C(=O)NC)nn1Cc1cccc(C(F)(F)F)c1 [Compound 45]	10	30	0	90	10	0	10	0	20	10	60	20	40	10	70	20	
CCc1cc(C(=O)NCC(C)(C)C)nn1Cc1cccc(C(F)(F)F)c1 [Compound 46]	10	70	0	70	0	0	20	0	20	10	40	20	30	20	60	10	
CCc1cc(C(=O)NCCOC)nn1Cc1cccc(C(F)(F)F)c1 [Compound 48]	10	10	0	50	0	0	0	0	30	10	10	10	10	20	20	10	
CCc1cc(C(=O)NCC(C)C)nn1Cc1cccc(C(F)(F)F)c1 [Compound 49]	30	50	0	100	50	0	30	0	30	20	50	100	30	30	100	90	
CCCCNC(=O)c1cc(CC)n(Cc2cccc(C(F)(F)F)c2)n1 [Compound 52]	10	40	0	40	30	10	30	0	30	20	50	70	30	30	30	50	
CCc1cc(C(=O)NCCC(F)(F)F)nn1Cc1cccc(OC(F)(F)F)c1 [Compound 55]	10	90	0	100	80	10	10	0	20	10	70	90	50	20	50	100	
CCc1cc(C(=O)N(C)C)nn1Cc1cccc(OC(F)(F)F)c1 [Compound 56]	0	10	0	70	0	0	0	0	10	0	60	10	10	0	20	0	
CCc1cc(C(=O)NCCOC)nn1Cc1cccc(OC(F)(F)F)c1 [Compound 57]	10	30	0	60	10	0	0	0	40	10	50	90	10	10	10	20	0
CCCCNC(=O)c1cc(CC)n(Cc2cccc(OC(F)(F)F)c2)n1 [Compound 62]	10	70	0	80	20	10	20	0	50	10	70	60	20	20	30	40	0
CCCCN(C)C(=O)c1cc(CC)n(Cc2cccc(OC(F)(F)F)c2)n1 [Compound 63]	0	30	0	60	0	0	10	0	20	0	70	0	10	0	20	0	0
CCc1cc(C(=O)NC)nn1Cc1cccc(OC(F)(F)F)c1 [Compound 65]	60	30	0	90	90	20	20	0	30	50	70	70	50	70	50	80	0
CCc1cc(C(=O)N(C)OC)nn1Cc1cccc(OC(F)(F)F)c1 [Compound 67]	0	30	0	40	0	10	20	0	30	20	40	90	30	0	40	50	0
